Data on 6 molecules can be found in patent publication US6399561B1, “Methods and compositions for bleaching a dye in solution” (Novozymes A/S, priority 1998, dated 2002).

Common to all, as to type: biochemical
Test [1] has as its target T1, Polyporus pinsitus laccase (Trametes villosa, UniProt Q99044).
T1 construct: made in house
T1 sequence (Q99044 22-520): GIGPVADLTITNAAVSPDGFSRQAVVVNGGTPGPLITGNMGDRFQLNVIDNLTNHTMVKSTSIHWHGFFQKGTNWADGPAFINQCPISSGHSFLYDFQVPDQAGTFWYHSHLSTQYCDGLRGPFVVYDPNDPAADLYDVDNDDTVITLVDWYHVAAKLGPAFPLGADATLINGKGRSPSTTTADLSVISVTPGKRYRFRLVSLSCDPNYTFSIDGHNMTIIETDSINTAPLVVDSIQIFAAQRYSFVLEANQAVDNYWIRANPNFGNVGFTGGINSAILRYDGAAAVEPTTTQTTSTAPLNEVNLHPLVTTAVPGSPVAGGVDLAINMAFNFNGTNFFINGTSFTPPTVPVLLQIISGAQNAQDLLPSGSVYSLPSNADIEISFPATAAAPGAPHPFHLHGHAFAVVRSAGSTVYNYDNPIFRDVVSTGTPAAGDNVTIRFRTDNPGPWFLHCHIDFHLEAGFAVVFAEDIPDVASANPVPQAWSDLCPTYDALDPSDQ
In words: Bleaching of methyl orange with laccase and -NOH-CO- type mediators (microtitre plate, end-point absorbance). As to the method: Polyporus pinsitus laccase as described in Example 1.
(§1) Methyl orange (Merck, Germany)
50 μl 0.1 mg/ml methyl orange
125 μl 0.1 M Britton-Robinson buffer (see example 1)
(§2) 25 μl 2 mM mediator or water (as reference)
50 μl laccase dilution (1:400)
Methyl orange, buffer and mediator are mixed in a microtitre plate and the reaction is started by addition of laccase. Absorbance is measured at 450 nm after 15 min.
N-Hydroxyacetanilide and N-(4-cyanophenyl)-N-hydroxyacetamide were tested as mediators in bleaching of methyl orange with a laccase at pH 4-6. Low values represent the best performance.

The subject of test [2] is Recombinant Coprinus cinereus laccase (rCcL). In words: Bleaching of methyl orange using rCcL and NOH-type enhancing agents (initial bleaching rate). As to conditions: for Initial changes per minute in A464 nm of methyl orange using rCcL: rCcL solution diluted 1:200, 0.2 mM mediator, 30° C., large negative numbers = best performance. As to the method: (§3) Britton-Robinson buffer is composed of:
as §1
(§4) Reactions were started by addition of enzyme. Absorbance at 464 nm was followed for 3 minutes (readings every 5 seconds) on a Cobas Fara at 30° C. Initial bleaching rates were determined from the first linear part of the progress curves.
(§5) The N—OH compounds listed above were tested as laccase mediators in bleaching of methyl orange with three recombinant laccases (rPpL, rMtL and rCcL) at various pH values. Large negative numbers represent the best performance.

Test [3] has as its system Recombinant Myceliophthora thermophila laccase (rMtL). The test is described as follows: Bleaching of methyl orange using rMtL and NOH-type enhancing agents (initial bleaching rate). As to conditions: rMtL solution diluted 1:300, 0.2 mM mediator, 30° C., large negative numbers = best performance. As to the method: as §3, §1, §4, §5
Test [4] addresses T1, Polyporus pinsitus laccase. The test is described as follows: Bleaching of methyl orange using rPpL and NOH-type enhancing agents (initial bleaching rate). To be noted: rPpL solution diluted 1:200, 0.2 mM mediator, 30° C., large negative numbers = best performance. As to the method: as §3, §1, §4, §5
For test [5], the target named is T1, Polyporus pinsitus laccase. The test is described as follows: Bleaching of various dyes with laccase and N-Hydroxyacetanilide (microtitre plate, end-point absorbance). To be noted: + enzyme + mediator, pH 5, laccase dilution 1:400, low values = best performance. As to the method:
Polyporus pinsitus laccase as described in Example 1, except that the concentration is 1726 LACU/ml.
125 μl 0.1 M Britton-Robinson buffer, pH 5 (see example 1)
as §2
50 μl laccase dilution (1:400) or water (as reference)
Dye, buffer and mediator are mixed in a micro-titre plate and the reaction is started by addition of laccase. Absorbance is measured at 595 nm after 5 min.
N-Hydroxyacetanilide was used as mediator in bleaching of various dyes with a laccase. Low values represent the best performance.

The mark [6] stands for this setting: pH 4, laccase dilution 1:400, low values = best performance.
The mark [7] stands for this setting: pH 5, laccase dilution 1:400, low values = best performance.
The mark [8] stands for this setting: pH 6, laccase dilution 1:400, low values = best performance.

For the molecule `CC(=O)N(O)c1ccc(C#N)cc1` [N-(4-cyanophenyl)-N-hydroxyacetamide], the “bleaching a dye in solution, result in words” value in test [1] (laccase, pH 4-6) is “as effective as N-Hydroxyacetanilide”. Moreover, the “Absorbance measured at 450 nm after 15 minutes” value in test [1] (setting [6]) was found to be 0.065; in test [1] (setting [7]) it was 0.055; in test [1] (setting [8]), 0.083.
With `CC[n+]1ccc(-c2ccc(S(=O)(=O)[O-])cc2)o1.O` [2-Ethyl-5-phenylisoxazolium-4′-sulfonate, H2O], the “Initial changes per minute in A464 nm of methyl orange using rCcL” value (from here on “Initial changes per minute … using rCcL”) in test [2] (pH 4) was 0.005 per minute; in test [2] (pH 5), 0.000 per minute; in test [2] (pH 6) it was −0.006 per minute; in test [2] (pH 7), −0.004 per minute; in test [2] (pH 8), −0.001 per minute. The “Initial changes per minute in A464 nm of methyl orange using rMtL” value (from here on “Initial changes per minute … using rMtL”) in test [3] (pH 4) was −0.012 per minute; in test [3] (pH 5), −0.004 per minute; in test [3] (pH 6), −0.002 per minute; in test [3] (pH 7), 0.000 per minute. For the same molecule, the “Initial changes per minute in A464 nm of methyl orange using rPpL” value (from here on “Initial changes per minute … using rPpL”) in test [4] (pH 4) is −0.017 per minute; in test [4] (pH 5), −0.017 per minute; in test [4] (pH 6), −0.006 per minute; in test [4] (pH 7), 0.001 per minute.
Turning to `ON=C(c1ccccn1)c1ccccn1` [di-2-pyridylketone oxime], the “Initial changes per minute … using rCcL” value in test [2] (pH 4) is listed as −0.004 per minute; in test [2] (pH 5), −0.006 per minute; in test [2] (pH 6), −0.008 per minute; in test [2] (pH 7), −0.006 per minute; in test [2] (pH 8), −0.001 per minute. Besides, the “Initial changes per minute … using rMtL” value in test [3] (pH 4) is reported as −0.026 per minute; in test [3] (pH 5), −0.010 per minute; in test [3] (pH 6), −0.001 per minute; in test [3] (pH 7), 0.001 per minute. The “Initial changes per minute … using rPpL” value in test [4] (pH 4) was −0.124 per minute; in test [4] (pH 5), −0.107 per minute; in test [4] (pH 6), −0.053 per minute; in test [4] (pH 7), −0.005 per minute.
Turning to `[O-][n+]1cccc2ccccc21` [Quinoline-N-oxide], the “Initial changes per minute … using rCcL” value in test [2] (pH 4) was −0.004 per minute; in test [2] (pH 5), −0.006 per minute; in test [2] (pH 6), −0.010 per minute; in test [2] (pH 7), −0.008 per minute; in test [2] (pH 8) it was −0.004 per minute. In addition, the “Initial changes per minute … using rMtL” value in test [3] (pH 4) was −0.016 per minute; in test [3] (pH 5) it was −0.011 per minute; in test [3] (pH 6), −0.002 per minute; in test [3] (pH 7) it was 0.000 per minute. The “Initial changes per minute … using rPpL” value is −0.074 per minute in test [4] (pH 4), −0.041 per minute in test [4] (pH 5), −0.016 per minute in test [4] (pH 6) and −0.002 per minute in test [4] (pH 7).
As to `CS(=O)(=O)c1ccc2ccn(OC(=O)c3ccccc3)c2c1` [PFC-202, Benzoic acid[6-(methylsulphonyl)indol-1-yl]ester], the “Initial changes per minute … using rCcL” value in test [2] (pH 4) is reported as −0.005 per minute; in test [2] (pH 5), −0.010 per minute; in test [2] (pH 6) it was −0.016 per minute; in test [2] (pH 7), 0.000 per minute; in test [2] (pH 8) it was 0.011 per minute. The “Initial changes per minute … using rMtL” value is −0.020 per minute in test [3] (pH 4), −0.017 per minute in test [3] (pH 5), 0.001 per minute in test [3] (pH 6) and 0.005 per minute in test [3] (pH 7). For the same molecule, the “Initial changes per minute … using rPpL” value in test [4] (pH 4) is −0.047 per minute; in test [4] (pH 5), −0.035 per minute; in test [4] (pH 6) it was −0.001 per minute; in test [4] (pH 7), 0.000 per minute.
Consider `CC(=O)N(O)c1ccccc1` [N-hydroxyacetanilide, N-Hydroxyacetanilide], for which the “Initial changes per minute … using rCcL” value in test [2] (pH 4) is reported as −0.521 per minute; in test [2] (pH 5), −0.719 per minute; in test [2] (pH 6) it was −0.674 per minute; in test [2] (pH 7), −0.498 per minute; in test [2] (pH 8), −0.136 per minute. In addition, the “bleaching of methyl orange, result in words” value in test [2] (summary of Tables 1-3 (rCcL, rMtL and rPpL, various pH)) is “surprisingly good compared with the other N—OH types enhancing agents”. The “Initial changes per minute … using rMtL” value was −1.306 per minute in test [3] (pH 4), −1.847 per minute in test [3] (pH 5), −0.630 per minute in test [3] (pH 6) and −0.101 per minute in test [3] (pH 7). Moreover, the “Initial changes per minute … using rPpL” value in test [4] (pH 4) is −4.743 per minute; in test [4] (pH 5), −6.528 per minute; in test [4] (pH 6) it was −1.837 per minute; in test [4] (pH 7), −0.055 per minute. For the same molecule, the “Absorbance measured at 450 nm after 15 minutes” value in test [1] (setting [6]) is 0.077; in test [1] (setting [7]) it was 0.068; in test [1] (setting [8]), 0.087. The “Absorbance measured at 595 nm after 5 minutes” value in test [5] (dye Acid blue 45) is 0.123; in test [5] (dye Acid blue 113), 0.062; in test [5] (dye CSB) it was 0.207; in test [5] (dye Cibacron Marine), 0.235.
